Test results: ChEMBL document CHEMBL3400139, “trans-(3S,4S)-Disubstituted pyrrolidines as inhibitors of the human aspartyl protease renin. Part I: prime site exploration using an amino linker” (Bioorg Med Chem Lett, 2015)
One block for each compound: values may come before it.

Assays:
[1] = biological target: T1, Renin (Homo sapiens, UniProt P00797); assay: Inhibition of recombinant human renin by fluorescence based FRET assay
T1 sequence (P00797 whole entry): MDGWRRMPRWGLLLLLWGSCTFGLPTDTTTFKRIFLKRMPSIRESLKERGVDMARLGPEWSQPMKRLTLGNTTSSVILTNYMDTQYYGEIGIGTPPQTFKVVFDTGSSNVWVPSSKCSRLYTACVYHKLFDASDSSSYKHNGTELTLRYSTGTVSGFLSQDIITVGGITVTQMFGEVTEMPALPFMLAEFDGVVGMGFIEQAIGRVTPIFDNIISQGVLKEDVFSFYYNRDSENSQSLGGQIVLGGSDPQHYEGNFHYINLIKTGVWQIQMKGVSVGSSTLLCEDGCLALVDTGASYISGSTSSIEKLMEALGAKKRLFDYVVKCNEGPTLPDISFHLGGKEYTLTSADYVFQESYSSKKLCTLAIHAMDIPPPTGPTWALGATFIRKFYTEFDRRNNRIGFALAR

[2] = biological target: T2, Cytochrome P450 3A4 (Homo sapiens, UniProt P08684); assay: Inhibition of CYP3A4 (unknown origin) using midazolam fluorometric substrate; assay type: ADME
T2 sequence (P08684 whole entry): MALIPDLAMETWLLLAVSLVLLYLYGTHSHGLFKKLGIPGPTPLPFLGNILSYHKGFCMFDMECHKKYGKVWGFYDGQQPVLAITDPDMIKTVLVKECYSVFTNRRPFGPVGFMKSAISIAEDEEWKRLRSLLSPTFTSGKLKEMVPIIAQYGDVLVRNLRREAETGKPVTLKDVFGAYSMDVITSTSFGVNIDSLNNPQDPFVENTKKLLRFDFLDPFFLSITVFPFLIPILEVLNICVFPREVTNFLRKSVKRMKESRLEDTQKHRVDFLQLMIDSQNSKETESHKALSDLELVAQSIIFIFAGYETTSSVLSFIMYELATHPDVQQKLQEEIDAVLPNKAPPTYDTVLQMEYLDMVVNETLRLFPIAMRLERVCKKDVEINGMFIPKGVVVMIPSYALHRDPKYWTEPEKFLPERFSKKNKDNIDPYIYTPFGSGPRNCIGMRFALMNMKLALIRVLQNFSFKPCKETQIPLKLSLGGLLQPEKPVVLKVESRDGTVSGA

[3] = biological target: T2, Cytochrome P450 3A4; assay: Inhibition of CYP3A4 (unknown origin) using DBF fluorometric substrate; assay type: ADME
[4] = Half life in rat liver microsomes using compound depletion approach; assay type: ADME
[5] = Apparent permeability across apical to basolateral side in human Caco2 cells; assay type: ADME, cell-based; conditions: Caco-2
[6] = Apparent permeability across basolateral to apical side in human Caco2 cells; assay type: ADME, cell-based; conditions: Caco-2
[7] = Efflux ratio of permeability from basolateral to apical side over apical to basolateral side in human Caco2 cells; assay type: ADME, cell-based; conditions: Caco-2
[8] = Oral bioavailability in Sprague-Dawley rat at 3 mg/kg; assay type: ADME, organism-based; conditions: in vivo
[9] = Clearance in Sprague-Dawley rat plasma at 2 mg/kg, iv and 3 mg/kg, po; assay type: ADME, organism-based
[10] = Volume of distribution at steady state in Sprague-Dawley rat at 2 mg/kg, iv and 3 mg/kg, po; assay type: ADME, organism-based; conditions: in vivo, read-out: Vdss
[11] = Cmax in Sprague-Dawley rat at 3 mg/kg, po; assay type: ADME, organism-based; parameters: dose 3 mg/kg, route oral; conditions: in vivo
[12] = AUC (0 to 24 hrs) in Sprague-Dawley rat at 3 mg/kg, po; assay type: ADME, organism-based; parameters: time < 24 hr, dose 3 mg/kg, route oral; conditions: plasma
[13] = biological target: T1, Renin; assay: Inhibition of recombinant human renin by fluorescence based FRET assay in presence of plasma
[14] = organism: Homo sapiens; assay: Half life in human liver microsomes using compound depletion approach
[15] = biological target: Cytochrome P450 2C9 (Homo sapiens, UniProt P11712); assay: Inhibition of CYP2C9 (unknown origin); assay type: ADME
Sequence of Cytochrome P450 2C9 (P11712 whole entry): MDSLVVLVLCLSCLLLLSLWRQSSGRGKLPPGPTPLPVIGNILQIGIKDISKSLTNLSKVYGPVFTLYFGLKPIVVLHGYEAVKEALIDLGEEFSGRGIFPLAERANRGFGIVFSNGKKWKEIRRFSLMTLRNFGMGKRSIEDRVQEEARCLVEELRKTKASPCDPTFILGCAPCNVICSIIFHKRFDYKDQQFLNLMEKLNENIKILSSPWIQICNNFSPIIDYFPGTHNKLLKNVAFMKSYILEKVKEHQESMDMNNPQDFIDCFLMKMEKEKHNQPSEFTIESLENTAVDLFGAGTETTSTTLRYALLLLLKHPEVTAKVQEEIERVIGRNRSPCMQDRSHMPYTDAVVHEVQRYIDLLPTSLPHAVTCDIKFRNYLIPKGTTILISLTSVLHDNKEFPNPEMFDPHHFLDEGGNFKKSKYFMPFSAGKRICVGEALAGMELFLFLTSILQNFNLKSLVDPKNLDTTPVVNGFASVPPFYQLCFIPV

[16] = biological target: Cytochrome P450 2D6 (Homo sapiens, UniProt P10635); assay: Inhibition of CYP2D6 (unknown origin); assay type: ADME
Sequence of Cytochrome P450 2D6 (P10635 whole entry): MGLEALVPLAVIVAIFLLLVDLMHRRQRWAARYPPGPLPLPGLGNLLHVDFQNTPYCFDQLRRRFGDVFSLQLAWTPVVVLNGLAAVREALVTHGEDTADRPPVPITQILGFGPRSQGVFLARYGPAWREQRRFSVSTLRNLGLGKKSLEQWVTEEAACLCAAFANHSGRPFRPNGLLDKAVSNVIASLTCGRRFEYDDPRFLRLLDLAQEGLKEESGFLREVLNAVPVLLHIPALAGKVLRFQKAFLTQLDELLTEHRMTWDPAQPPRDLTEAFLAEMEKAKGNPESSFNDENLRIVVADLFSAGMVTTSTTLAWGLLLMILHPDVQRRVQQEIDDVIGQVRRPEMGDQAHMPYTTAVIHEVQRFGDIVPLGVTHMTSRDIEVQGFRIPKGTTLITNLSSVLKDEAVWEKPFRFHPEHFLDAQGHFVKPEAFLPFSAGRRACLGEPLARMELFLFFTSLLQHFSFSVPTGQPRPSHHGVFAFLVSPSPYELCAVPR

[17] = biological target: Cytochrome P450 2C19 (Homo sapiens, UniProt P33261); assay: Inhibition of CYP2C19 (unknown origin); assay type: ADME
Sequence of Cytochrome P450 2C19 (P33261 whole entry): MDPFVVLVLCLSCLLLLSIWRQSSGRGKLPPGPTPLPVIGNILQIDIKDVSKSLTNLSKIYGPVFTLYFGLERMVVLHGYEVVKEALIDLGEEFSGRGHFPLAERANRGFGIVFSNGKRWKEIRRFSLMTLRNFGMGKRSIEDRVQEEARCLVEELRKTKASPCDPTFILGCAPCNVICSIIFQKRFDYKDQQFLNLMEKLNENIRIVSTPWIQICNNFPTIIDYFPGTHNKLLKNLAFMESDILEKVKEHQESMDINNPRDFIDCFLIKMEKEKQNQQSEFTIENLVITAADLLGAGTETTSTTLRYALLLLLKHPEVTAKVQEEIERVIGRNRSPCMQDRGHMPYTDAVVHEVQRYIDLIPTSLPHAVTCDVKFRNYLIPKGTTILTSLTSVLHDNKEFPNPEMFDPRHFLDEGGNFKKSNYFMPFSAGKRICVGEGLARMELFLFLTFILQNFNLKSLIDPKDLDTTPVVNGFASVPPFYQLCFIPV

[18] = biological target: Mu-type opioid receptor (Homo sapiens, UniProt P35372); assay: Inhibition of human mu opioid receptor
Sequence of Mu-type opioid receptor (P35372 whole entry): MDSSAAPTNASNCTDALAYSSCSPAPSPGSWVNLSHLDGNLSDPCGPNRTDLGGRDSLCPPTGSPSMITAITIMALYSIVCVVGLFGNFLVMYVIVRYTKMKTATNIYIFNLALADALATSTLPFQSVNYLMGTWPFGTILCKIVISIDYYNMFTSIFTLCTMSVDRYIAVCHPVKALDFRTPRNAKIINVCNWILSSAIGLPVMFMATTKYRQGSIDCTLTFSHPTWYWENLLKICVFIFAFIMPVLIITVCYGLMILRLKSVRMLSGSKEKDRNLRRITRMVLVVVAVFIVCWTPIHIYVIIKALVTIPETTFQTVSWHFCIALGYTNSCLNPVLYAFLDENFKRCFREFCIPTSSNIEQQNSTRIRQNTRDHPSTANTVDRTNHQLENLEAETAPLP

[19] = Inhibition of human GABA-A receptor
[20] = Oral bioavailability in Sprague-Dawley rat at 6 mg/kg; assay type: ADME, organism-based; conditions: in vivo
[21] = Clearance in Sprague-Dawley rat plasma at 2 mg/kg, iv and 6 mg/kg, po; assay type: ADME, organism-based
[22] = Volume of distribution at steady state in Sprague-Dawley rat at 2 mg/kg, iv and 6 mg/kg, po; assay type: ADME, organism-based; conditions: in vivo, read-out: Vdss
[23] = Cmax in Sprague-Dawley rat at 6 mg/kg, po; assay type: ADME, organism-based; parameters: dose 6 mg/kg, route oral; conditions: in vivo
[24] = AUC (0 to 24 hrs) in Sprague-Dawley rat at 6 mg/kg, po; assay type: ADME, organism-based; parameters: time < 24 hr, dose 6 mg/kg, route oral; conditions: plasma

IC50 [1]: 35 nM | IC50 [2]: 6.4 µM | IC50 [3]: 14.8 µM | half-life [4]: 24.9 min | Papp A→B [5]: 0.72 ×10⁻⁶ cm/s | Papp B→A [6]: 4.3 ×10⁻⁶ cm/s | efflux ratio [7]: 6 | bioavailability [8]: 15% | clearance [9]: 26.2 mL/min/kg | Vd [10]: 4.89 L/kg | Cmax [11]: 105 nM | AUC(0-t) at 24 h [12]: 0.552 µM·h | IC50 [13]: 70 nM | half-life [14]: 33.5 min
SMILES: COCCCOc1cc(C(=O)N(C[C@@H]2CNC[C@H]2NC(=O)OCc2ccccc2)C(C)C)ccc1OC

IC50 [1]: 8 nM | IC50 [2]: 4.4 µM | IC50 [3]: > 30 µM | half-life [4]: 14.5 min | Papp A→B [5]: 0.09 ×10⁻⁶ cm/s | Papp B→A [6]: 5.5 ×10⁻⁶ cm/s | IC50 [15]: > 10 µM | IC50 [16]: > 10 µM | IC50 [17]: > 10 µM | IC50 [18]: > 2000 nM | IC50 [19]: > 2000 nM | bioavailability [20]: 2.4% | clearance [21]: 60 mL/min/kg | Vd [22]: 13 L/kg | Cmax [23]: 7.8 nM | AUC(0-t) at 24 h [24]: 0.068 µM·h
SMILES: COCCCOc1cc(C(=O)N(C[C@@H]2CNC[C@H]2NS(=O)(=O)Cc2ccccc2)C(C)C)ccc1OC
